# According to patent publication US20250163047A1, “HETEROCYCLIC COMPOUNDS, COMPOSITIONS THEREOF, AND METHODS OF TREATMENT THEREWITH” (BeiGene, Ltd., priority 2022, published 2025):
# Experiments:
# [1] = biological target: T1, Cbl (aa49-434) (Homo sapiens, UniProt P22681); experiment: Co-expressed Cbl with BirA biochemical assay (CBL/E2-Ub binding, HTRF); details: 0.6 nM Cbl co-expressed with BirA, read-out: co-express CBL/E2-Ub-binding assay IC50
# T1 construct: Cbl (aa49-434, in-house); made in house
# T1 sequence (P22681 49-434): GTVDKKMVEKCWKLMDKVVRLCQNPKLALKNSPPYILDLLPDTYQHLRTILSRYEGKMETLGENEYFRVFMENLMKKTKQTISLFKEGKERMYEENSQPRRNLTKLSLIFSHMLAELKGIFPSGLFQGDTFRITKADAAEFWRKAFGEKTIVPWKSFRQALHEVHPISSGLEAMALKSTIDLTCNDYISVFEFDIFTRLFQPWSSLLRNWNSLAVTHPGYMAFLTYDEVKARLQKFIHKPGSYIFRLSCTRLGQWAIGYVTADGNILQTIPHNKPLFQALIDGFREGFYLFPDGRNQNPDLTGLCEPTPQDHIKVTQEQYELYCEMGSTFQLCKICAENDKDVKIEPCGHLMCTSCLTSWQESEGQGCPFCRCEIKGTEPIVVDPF
# Description: (§1) The assay in the absence of a Cbl-b/Cbl inhibitor, where phosphorylation of Cbl-b/Cbl by the Src kinase allows UbcH5B-Ub to bind to Cbl-b/Cbl and brings the Bodipy-Fluorescein tagged ubiquitin in proximity to the streptavidin-terbium bound to the N-terminal biotinylated Avi-tagged Cbl-b/Cbl. […] The lack of a FRET signal indicates Cbl-b/Cbl is inhibited by the Cbl-b/Cbl inhibitor.
# [2] = biological target: T2, Cbl-b (aa36-427) (Homo sapiens, UniProt Q13191); experiment: Co-expressed Cbl-b with BirA biochemical assay (CBLB/E2-Ub binding, HTRF); details: 0.6 nM Cbl-b co-expressed with BirA, HTRF; read-out: co-express CBLB/E2-Ub-binding assay IC50
# T2 construct: Cbl-b (aa36-427, in-house); made in house
# Description: as §1
# T2 sequence (Q13191 36-427): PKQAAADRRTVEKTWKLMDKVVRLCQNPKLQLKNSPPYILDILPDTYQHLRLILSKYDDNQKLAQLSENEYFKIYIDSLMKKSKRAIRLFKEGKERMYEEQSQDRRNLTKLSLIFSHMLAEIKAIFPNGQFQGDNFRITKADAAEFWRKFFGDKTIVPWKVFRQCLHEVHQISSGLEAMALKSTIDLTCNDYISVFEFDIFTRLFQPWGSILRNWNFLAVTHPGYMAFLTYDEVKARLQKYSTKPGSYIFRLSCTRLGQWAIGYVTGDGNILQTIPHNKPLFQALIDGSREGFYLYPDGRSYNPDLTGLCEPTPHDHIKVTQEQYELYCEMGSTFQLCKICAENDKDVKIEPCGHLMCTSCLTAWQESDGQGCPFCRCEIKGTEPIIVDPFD
Compound,IC50 [1],IC50 [2]
"Cn1cnnc1[C@]1(c2cccc(NC(=O)c3cc(CNCC4CCCC4)c4c(n3)C(C)(C)CO4)c2)C[C@H](C)C1 [Compound C33, 7-(((cyclopentylmethyl)amino)methyl)-3,3-dimethyl-N-(3-((1s, 3s)-3-methyl-1-(4-methyl-4H-1,2,4-triazol-3-yl)cyclobutyl)phenyl)-2,3-dihydrofuro[3,2-b]pyridine-5-carboxamide]",46.7 nM,11.4 nM
"C[C@@H]1CN(Cc2cc(C(=O)Nc3cccc([C@]4(c5nncn5C)C[C@@H](C)C4)c3)nc3c2NCC32CC2)CC[C@@H]1F [Compound C50, 7′-(((3R,4S)-4-fluoro-3-methylpiperidin-1-yl)methyl)-N-(3-((1s,3S)-3-methyl-1-(4-methyl-4H-1,2,4-triazol-3-yl)cyclobutyl)phenyl)-1′,2′-dihydrospiro[cyclopropane-1,3′-pyrrolo[3,2-b]pyridine]-5′-carboxamide]",0.8 nM,0.7 nM
"C[C@H]1CCCN(Cc2cc(C(=O)Nc3cccc(C4(c5nncn5C)CC(CC#N)C4)c3)nc3c2CCC3(C)C)C1 (stereo partly drawn) [Compound C7, (S)—N-(3-(3-(cyanomethyl)-1-(4-methyl-4H-1,2,4-triazol-3-yl)cyclobutyl)phenyl)-7,7-dimethyl-4-((3-methylpiperidin-1-yl)methyl)-6,7-dihydro-5H-cyclopenta[b]pyridine-2-carboxamide]",19.7 nM,2.56 nM
"CC(C)CNCc1cc(C(=O)Nc2cncc([C@]3(c4nncn4C)C[C@@H](C)C3)c2)nc2c1CCC2(F)F [Compound C53, 7,7-difluoro-4-{[(2-methylpropyl)amino]methyl}-N-{5-[(1r, 3s)-3-methyl-1-(4-methyl-1,2,4-triazol-3-yl)cyclobutyl]pyridin-3-yl}-5H,6H-cyclopenta[b]pyridine-2-carboxamide]",15.8 nM,3.7 nM
"N-(3-((1s,3R)-3-methyl-1-(4-methyl-4H-1,2,4-triazol-3-yl)cyclobutyl)phenyl)-7′-(((S)-3-methylpiperidin-1-yl)methyl)-1′,2′-dihydrospiro[cyclopropane-1,3′-pyrrolo[3,2-b]pyridine]-5′-carboxamide [Compound C51]",4.9 nM,1.5 nM
"C[C@H]1CCCN(Cc2cc(C(=O)Nc3cccc([C@]4(c5nncn5C)C[C@@H](CC#N)C4)c3)n3ncc(F)c3c2)C1 [Compound A20, 3-fluoro-5-{[(3S)-3-methylpiperidin-1-yl]methyl}-N-{3-[(1s, 3s)-3-(cyanomethyl)-1-(4-methyl-1,2,4-triazol-3-yl)cyclobutyl]phenyl}pyrazolo[1,5-a]pyridine-7-carboxamide]",26.5 nM,3 nM
"C[C@@H]1CN(Cc2cc(C(=O)Nc3cncc([C@]4(c5nncn5C)C[C@@H](C)C4)c3)nc3c2NCC3(C)C)CC[C@@H]1F [Compound C58, 7-(((3R,4S)-4-fluoro-3-methylpiperidin-1-yl)methyl)-3,3-dimethyl-N-(5-((1s,3S)-3-methyl-1-(4-methyl-4H-1,2,4-triazol-3-yl)cyclobutyl)pyridin-3-yl)-2,3-dihydro-1H-pyrrolo[3,2-b]pyridine-5-carboxamide]",3.2 nM,1.7 nM
"C[C@H](NCc1cc(C(=O)Nc2cccc([C@]3(c4nncn4C)C[C@@H](CC#N)C3)c2)nc2c1CCC2(C)C)C1CC1 [Compound C39, N-(3-((1s,3R)-3-(cyanomethyl)-1-(4-methyl-4H-1,2,4-triazol-3-yl)cyclobutyl)phenyl)-4-((((S)-1-cyclopropylethyl)amino)methyl)-7,7-dimethyl-6,7-dihydro-5H-cyclopenta[b]pyridine-2-carboxamide]",2.9 nM,0.8 nM
"Cn1cnnc1[C@]1(c2cccc(NC(=O)c3cc(CNCC4CCC4)c4c(n3)C(C)(C)CN4)c2)C[C@H](C)C1 [Compound C49, 7-(((cyclobutylmethyl)amino)methyl)-3,3-dimethyl-N-(3-((1s, 3s)-3-methyl-1-(4-methyl-4H-1,2,4-triazol-3-yl)cyclobutyl)phenyl)-2,3-dihydro-1H-pyrrolo[3,2-b]pyridine-5-carboxamide]",5.9 nM,2 nM
"CC(C)CNCc1cc(C(=O)Nc2cccc([C@]3(c4nncn4C)C[C@@H](CC#N)C3)c2)nc2cc[nH]c12 [Compound B29, N-(3-((1s, 3s)-3-(cyanomethyl)-1-(4-methyl-4H-1,2,4-triazol-3-yl)cyclobutyl)phenyl)-7-((isobutylamino)methyl)-1H-pyrrolo[3,2-b]pyridine-5-carboxamide]",2.3 nM,1.2 nM
"C[C@H]1CCCN(Cc2cc(C(=O)Nc3cccc([C@]4(c5nncn5C)C[C@@H](CC#N)C4)c3)nc3c2NCC32CC2)C1 [Compound C19, N-(3-((1s,3R)-3-(cyanomethyl)-1-(4-methyl-4H-1,2,4-triazol-3yl)cyclobutyl)phenyl)-7′-(((S)-3-methylpiperidin-1-yl)methyl)-1′,2′-dihydrospiro[cyclopropane-1,3′-pyrrolo[3,2-b]pyridine]-5′-carboxamide]",6 nM,2.7 nM

# Continued, values first:
IC50 [1],IC50 [2],Compound
2.4 nM,1 nM,"Cn1cnnc1[C@]1(c2cccc(NC(=O)c3cc(CNCC4(C)CCCC4)cn4c(Cl)cnc34)c2)C[C@H](CC#N)C1 [Compound A28, 3-chloro-N-(3-((1s, 3s)-3-(cyanomethyl)-1-(4-methyl-4H-1,2,4-triazol-3-yl)cyclobutyl)phenyl)-6-((((1-methylcyclopentyl)methyl)amino)methyl)imidazo[1,2-a]pyridine-8-carboxamide]"
3.9 nM,1.8 nM,"C[C@H]1CCCN(Cc2cc(C(=O)Nc3cccc([C@]4(Cc5nncn5C)C[C@@H](C#N)C4)c3)nc3c(F)c[nH]c23)C1 [Compound B20, N-(3-((1r,3S)-3-cyano-1-((4-methyl-4H-1,2,4-triazol-3-yl)methyl)cyclobutyl)phenyl)-3-fluoro-7-(((S)-3-methylpiperidin-1-yl)methyl)-1H-pyrrolo[3,2-b]pyridine-5-carboxamide]"
2.3 nM,1.3 nM,"Cn1cnnc1C[C@]1(c2cccc(NC(=O)c3cc(CNCC4(C)CCCC4)cn4c(Cl)cnc34)c2)C[C@H](C#N)C1 [Compound A29, 3-chloro-N-(3-((1r, 3r)-3-cyano-1-((4-methyl-4H-1,2,4-triazol-3-yl)methyl)cyclobutyl)phenyl)-6-((((1-methylcyclopentyl)methyl)amino)methyl)imidazo[1,2-a]pyridine-8-carboxamide]"
3.4 nM,0.8 nM,"Cn1cnnc1[C@]1(c2cccc(NC(=O)c3cc(CNCC4CCC4)cn4c(F)cnc34)c2)C[C@H](C)C1 [Compound A52, 6-(((cyclobutylmethyl)amino)methyl)-3-fluoro-N-(3-((1s, 3s)-3-methyl-1-(4-methyl-4H-1,2,4-triazol-3-yl)cyclobutyl)phenyl)imidazo[1,2-a]pyridine-8-carboxamide]"
5.9 nM,0.9 nM,"Cn1cnnc1[C@]1(c2cccc(NC(=O)c3cc(CNC4(C)CC4)cn4ccnc34)c2)C[C@H](C)C1 [Compound A16, N-(3-((1s, 3s)-3-methyl-1-(4-methyl-4H-1,2,4-triazol-3-yl)cyclobutyl)phenyl)-6-(((1-methylcyclopropyl)amino)methyl)imidazo[1,2-a]pyridine-8-carboxamide]"
5.9 nM,1.6 nM,"Cc1cnc2c(C(=O)Nc3cccc([C@]4(c5nncn5C)C[C@@H](C)C4)c3)cc(CN3CC[C@H](F)[C@H](C)C3)cn12 [Compound A46, 6-(((3R,4S)-4-fluoro-3-methylpiperidin-1-yl)methyl)-3-methyl-N-(3-((1s,3S)-3-methyl-1-(4-methyl-4H-1,2,4-triazol-3-yl)cyclobutyl)phenyl)imidazo[1,2-a]pyridine-8-carboxamide]"
1.3 nM,1.4 nM,"C[C@H]1CCCN(Cc2cc(C(=O)Nc3cccc([C@]4(Cc5nncn5C)C[C@@H](C#N)C4)c3)nc3c2NCC3(C)C)C1 [Compound C12, 3,3-dimethyl-7-{[(3S)-3-methylpiperidin-1-yl]methyl}-N-{3-[(1r, 3r)-3-cyano-1-[(4-methyl-1,2,4-triazol-3-yl)methyl]cyclobutyl]phenyl}-1H,2H-pyrrolo[3,2-b]pyridine-5-carboxamide]"
5.5 nM,1.7 nM,"Cn1cnnc1[C@]1(c2cncc(NC(=O)c3cc(CNC4(C)CC4)cn4ccnc34)c2)C[C@H](C)C1 [Compound A75, N-(5-((1s, 3s)-3-methyl-1-(4-methyl-4H-1,2,4-triazol-3-yl)cyclobutyl)pyridin-3-yl)-6-(((1-methylcyclopropyl)amino)methyl)imidazo[1,2-a]pyridine-8-carboxamide]"
12 nM,2 nM,"Cn1cnnc1[C@]1(c2cccc(NC(=O)c3cc(CNCC4CCC4)cn4ccnc34)c2)C[C@H](CC#N)C1 [Compound A43, N-(3-((1s, 3s)-3-(cyanomethyl)-1-(4-methyl-4H-1,2,4-triazol-3-yl)cyclobutyl)phenyl)-6-(((cyclobutylmethyl)amino)methyl)imidazo[1,2-a]pyridine-8-carboxamide]"
